Legend:
[1] = Determination of metabolic stability with human liver microsomes; conditions: pooled human liver microsomes; for half-life at 1 μM: human, pH 7.6
Procedure: Determination of Metabolic Stability with Human Liver Microsomes
The metabolic degradation of the test compound is assayed at 37° C. with pooled human liver microsomes. The final incubation volume of 100 μl per time point contains TRIS buffer pH 7.6 (0.1 M), magnesium chloride (5 mM), microsomal protein (1 mg/ml) and the test compound at a final concentration of 1 μM. Following a short preincubation period at 37° C., the reactions are initiated by addition of beta-nicotinamide adenine dinucleotide phosphate, reduced form (NADPH, 1 mM) and terminated by transferring an aliquot into acetonitrile after different time points. Additionally, the NADPH-independent degradation is monitored in incubations without NADPH, terminated at the last time point. The [%] remaining test compound after NADPH independent incubation is reflected by the parameter c (control) (metabolic stability). The quenched incubations are pelleted by centrifugation (10,000 g, 5 min). An aliquot of the supernatant is assayed by LC-MS/MS for the amount of parent compound.
The half-life (t½ INVITRO) is determined by the slope of the semilogarithmic plot of the concentration-time profile.

[2] = biological target: recombinant human Cathepsin K (Homo sapiens (Human), UniProt P43235); experiment: Inhibition of human Cathepsin K; type: biochemical; conditions: substrate Z-Gly-Pro-Arg-AMC
In short: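 Fluorogenic Z-Gly-Pro-Arg-AMC cleavage, 60 min at room temperature, after a 10 min enzyme–compound preincubation (enzyme 2 ng/μL; compound 0.1 nM–100 μM; 1% DMSO). Buffer pH 5.5 with sodium acetate, EDTA and L-cysteine; procathepsin first activated 30 min at pH 3.5. E64 (1 μM) stop; IC50 derived from percent of vehicle signal minus background (Ex 360/Em 460 nm).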

[3] = biological target: recombinant human DPPI (Cathepsin C) (Homo sapiens (Human), UniProt P53634); experiment: Inhibition of human DPPI (Cathepsin C); type: biochemical; conditions: substrate Gly-Arg-AMC
In short: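 Fluorescence read after 30 min room-temperature turnover of 50 μM (final) substrate by recombinant human cathepsin C, pH 6.0 MES/NaCl/DTT/BSA buffer, quenched by Gly-Phe-DMK (1 μM final). Activity as percent of vehicle after background subtraction, used for IC50.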

Chain of recombinant human Cathepsin K (P43235 115-329): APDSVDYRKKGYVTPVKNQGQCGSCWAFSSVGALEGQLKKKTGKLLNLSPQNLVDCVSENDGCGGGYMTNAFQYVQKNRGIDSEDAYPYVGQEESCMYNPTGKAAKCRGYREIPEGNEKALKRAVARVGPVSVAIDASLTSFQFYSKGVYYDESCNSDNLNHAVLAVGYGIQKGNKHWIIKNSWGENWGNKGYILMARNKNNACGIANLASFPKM
Chain of recombinant human DPPI (Cathepsin C) (P53634 231-394): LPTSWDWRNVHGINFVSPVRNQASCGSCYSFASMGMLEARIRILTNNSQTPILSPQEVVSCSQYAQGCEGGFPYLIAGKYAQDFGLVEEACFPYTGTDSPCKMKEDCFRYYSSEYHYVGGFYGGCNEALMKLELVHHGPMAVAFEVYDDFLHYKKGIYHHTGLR
Chain of recombinant human DPPI (Cathepsin C) (P53634 395-463): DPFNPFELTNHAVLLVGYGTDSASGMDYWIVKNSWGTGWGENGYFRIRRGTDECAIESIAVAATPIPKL
Chain of recombinant human DPPI (Cathepsin C) (P53634 25-134): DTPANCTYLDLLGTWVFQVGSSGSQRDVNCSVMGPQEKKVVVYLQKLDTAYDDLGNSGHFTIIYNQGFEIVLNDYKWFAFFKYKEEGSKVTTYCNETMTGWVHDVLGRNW

SMILES | half-life at 1 μM [1] | IC50 [2] | IC50 [3] | In vitro stability in human liver microsome incubations t½ ([1]; 1 μM test compound, 37° C., NADPH)
CS(=O)(=O)c1cccc(-c2ccc(C[C@@H](C#N)NC(=O)[C@H]3N[C@@H]4CC[C@H]3C4)c(F)c2)c1 [Example 4, (1S,2S,4R)—N-[(1S)-1-cyano-2-[2-fluoro-4-(3-methylsulfonylphenyl)phenyl]ethyl]-3-azabicyclo[2.2.1]heptane-2-carboxamide] | > 2.17 h | 2600 nM | 1.4 nM | 
N#C[C@H](Cc1ccc(-n2cc(-c3ccc4[nH]ccc4c3)nn2)cc1F)NC(=O)[C@H]1N[C@@H]2CC[C@H]1C2 [Example 5, (1S,2S,4R)—N-[(1S)-1-cyano-2-[2-fluoro-4-[4-(1H-indol-5-yl)triazol-1-yl]phenyl]ethyl]-3-azabicyclo[2.2.1]heptane-2-carboxamide] | 1.53 h | 2600 nM | 4 nM | 
CN1CCN(c2ccc(C[C@@H](C#N)NC(=O)[C@H]3N[C@@H]4CC[C@H]3C4)c(F)c2)CC1 [Example 6, (1S,2S,4R)—N-[(1S)-1-cyano-2-[2-fluoro-4-(4-methylpiperazin-1-yl)phenyl]ethyl]-3-azabicyclo[2.2.1]heptane-2-carboxamide] | > 2.17 h | 2500 nM | 10.7 nM | 
CN1C(=O)C(=O)c2ccc(-c3ccc(C[C@@H](C#N)NC(=O)[C@H]4N[C@@H]5CC[C@H]4C5)c(F)c3)cc21 [Example 10] | > 2.17 h | 2700 nM | 1.5 nM | 
CS(=O)(=O)c1ccc(-c2ccc(C[C@@H](C#N)NC(=O)[C@H]3N[C@@H]4CC[C@H]3C4)c(F)c2)cc1F [Example 12] | > 2.17 h | 2100 nM | 1.9 nM | 
CS(=O)(=O)c1cc(-c2ccc(C[C@@H](C#N)NC(=O)[C@H]3N[C@@H]4CC[C@H]3C4)c(F)c2)ccc1C#N [Example 14] | > 2.17 h | 2700 nM | 2 nM | 
CN1C(=O)Cc2ccc(-c3ccc(CC(C#N)NC(=O)[C@H]4N[C@@H]5CC[C@H]4C5)c(F)c3)cc21 (stereo partly drawn) [Example 15] |  | 3200 nM | 2 nM | 2.17 h
CS(=O)(=O)c1ccc(-c2ccc(C[C@@H](C#N)NC(=O)[C@H]3N[C@@H]4CC[C@H]3C4)c(F)c2)cc1 [Example 16] | > 2.17 h | 2100 nM | 2.6 nM | 
CS(=O)(=O)c1cc(-c2ccc(CC(C#N)NC(=O)[C@H]3N[C@@H]4CC[C@H]3C4)c(F)c2)ccc1C#N (stereo partly drawn) [Example 19] | > 2.17 h | 5400 nM | 2.8 nM | 
N#C[C@H](Cc1ccc(-c2cnn(CC3CCOC3)c2)cc1F)NC(=O)[C@H]1N[C@@H]2CC[C@H]1C2 (stereo partly drawn) [Example 21] | > 2.17 h | 4900 nM | 3.1 nM | 
N#CC(Cc1ccc(-c2ccc3c(c2)NC(=O)C3)cc1F)NC(=O)[C@H]1N[C@@H]2CC[C@H]1C2 (stereo partly drawn) [Example 22] | > 2.17 h | 3200 nM | 3.3 nM | 
CN1C(=O)Cc2ccc(-c3ccc(C[C@@H](C#N)NC(=O)[C@H]4N[C@@H]5CC[C@H]4C5)c(F)c3F)cc21 [Example 24] | 1.83 h | 13300 nM | 3.7 nM | 
N#C[C@H](Cc1ccc(-c2cnn(CC3CCCCO3)c2)cc1F)NC(=O)[C@H]1N[C@@H]2CC[C@H]1C2 (stereo partly drawn) [Example 28] | > 2.17 h | 2700 nM | 4.1 nM | 
N#C[C@H](Cc1ccc(-c2ccc3c(c2)NC(=O)C3)cc1F)NC(=O)[C@H]1N[C@@H]2CC[C@H]1C2 [Example 29] | > 2.17 h | 1400 nM | 4.2 nM | 
CN1C(=O)Cc2ccc(-c3cc(F)c(C[C@@H](C#N)NC(=O)[C@H]4N[C@@H]5CC[C@H]4C5)cc3F)cc21 [Example 31] | 1.5 h | 7300 nM | 4.3 nM | 
N#C[C@H](Cc1ccc(-c2ccc(C(F)(F)F)s2)cc1F)NC(=O)[C@H]1N[C@@H]2CC[C@H]1C2 [Example 33] | > 2.17 h | 4800 nM | 4.5 nM | 

Source: patent US8987249B2, “Substituted 2-Aza-bicyclo[2.2.1]heptane-3-carboxylic acid (benzyl-cyano-methyl)-amides inhibitors of Cathepsin C” (Boehringer Ingelheim International GmbH, priority 2013, dated 2015)
